Test results published in ChEMBL document CHEMBL4190375, “Current Insights of BRAF Inhibitors in Cancer” (J Med Chem, 2018).
Blank lines part the entries; values can stand above or below the compound they belong to.

Legend:
[1] = system: SK-MEL-30; test: cells; settings: Homo sapiens, SK-MEL-30, 48 h
[2] = system: A-375; test: Cytotoxicity against human A375 cells harboring BRAF V600E mutant after 48 hrs by CellTiter-Glo assay; format: functional, cell-based; settings: A-375, 48 h
[3] = system: A-375; test: Cytotoxicity against human A375 cells harboring BRAF V600E mutant after 72 hrs by CellTiter-Glo assay; format: functional, cell-based; settings: A-375, 72 h
[4] = system: A-375; test: Cytotoxicity against human A375 cells harboring BRAF V600E mutant; format: functional, cell-based
[5] = biological target: T1, Serine/threonine-protein kinase B-raf (Homo sapiens, UniProt P15056, V600E)
[6] = biological target: T1, Serine/threonine-protein kinase B-raf; test: biochemical
[7] = biological target: T2, RAF proto-oncogene serine/threonine-protein kinase (Homo sapiens, UniProt P04049); test: Inhibition of CRAF (unknown origin)
[8] = biological target: T3, Serine/threonine-protein kinase A-Raf (Homo sapiens, UniProt P10398); test: Inhibition of ARAF (unknown origin)
T3 sequence (P10398 whole entry): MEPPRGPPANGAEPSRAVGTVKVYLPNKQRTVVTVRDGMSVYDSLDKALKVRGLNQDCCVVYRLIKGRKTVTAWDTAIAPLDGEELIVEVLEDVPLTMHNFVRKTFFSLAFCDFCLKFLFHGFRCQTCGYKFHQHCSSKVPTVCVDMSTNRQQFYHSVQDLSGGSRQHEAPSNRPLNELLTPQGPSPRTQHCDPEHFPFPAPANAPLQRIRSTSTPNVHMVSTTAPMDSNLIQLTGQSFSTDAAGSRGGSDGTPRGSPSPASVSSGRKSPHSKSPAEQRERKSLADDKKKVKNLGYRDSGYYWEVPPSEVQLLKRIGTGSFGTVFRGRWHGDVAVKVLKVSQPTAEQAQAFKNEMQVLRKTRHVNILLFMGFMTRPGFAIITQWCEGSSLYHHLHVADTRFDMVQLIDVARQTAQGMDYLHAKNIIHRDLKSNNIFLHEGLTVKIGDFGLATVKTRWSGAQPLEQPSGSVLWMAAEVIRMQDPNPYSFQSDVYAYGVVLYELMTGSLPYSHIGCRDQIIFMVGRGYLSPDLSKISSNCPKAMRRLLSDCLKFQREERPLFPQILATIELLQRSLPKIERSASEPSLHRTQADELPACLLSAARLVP

[9] = biological target: T1, Serine/threonine-protein kinase B-raf; remark: listed apart in the source
[10] = biological target: T1, Serine/threonine-protein kinase B-raf; remark: listed apart in the source
[11] = biological target: T4, Serine/threonine-protein kinase B-raf (Homo sapiens, UniProt P15056)
[12] = biological target: T1, Serine/threonine-protein kinase B-raf; test: Inhibition of BRAF V600E mutant in human A375 cells assessed as reduction in ERK phosphorylation; format: cell-based
[13] = biological target: T1, Serine/threonine-protein kinase B-raf; test: Inhibition of BRAF V600E mutant (unknown origin)
[14] = Cytotoxicity against human HCC364 cells harboring p61 V600E mutant; format: functional, cell-based
[15] = system: SK-MEL-28; test: Cytotoxicity against human SK-MEL-28 cells after 72 hrs by CellTiter-Glo assay; format: functional, cell-based; settings: SK-MEL-28, 72 h
[16] = Cytotoxicity against human PLGA cells harboring BRAF V600E mutant after 96 hrs by CellTiter-Glo assay; format: functional, cell-based
[17] = Tmax in human; format: ADME, organism-based; settings: in vivo
[18] = biological target: T1, Serine/threonine-protein kinase B-raf; test: Inhibition of BRAF V600E mutant (unknown origin) by Z'-LYTE assay
[19] = system: A-375; test: Cytotoxicity against human A375 cells harboring BRAF V600E mutant after 72 hrs by alamar blue assay; format: functional, cell-based; settings: A-375, 72 h
[20] = biological target: T1, Serine/threonine-protein kinase B-raf; test: Inhibition of BRAF V600E mutant in human A375 cells assessed as reduction in ERK phosphorylation after 2 hrs by ELISA; format: cell-based
[21] = biological target: T4, Serine/threonine-protein kinase B-raf; test: Inhibition of wild type BRAF (unknown origin) by Z'-LYTE assay
[22] = biological target: T2, RAF proto-oncogene serine/threonine-protein kinase; test: Inhibition of CRAF (unknown origin) by Z'-LYTE assay
[23] = system: WM 266-4; test: Cytotoxicity in human WM266.4 cells after 72 hrs by CellTiter-Glo assay; format: functional, cell-based; settings: WM 266-4, 72 h
[24] = Half life in human; format: ADME, organism-based; settings: in vivo
[25] = system: SK-MEL19; test: Cytotoxicity against human SK-MEL-19 cells harboring BRAF mutant after 3 days; format: functional, cell-based; settings: SK-MEL19, 72 h
[26] = biological target: T4, Serine/threonine-protein kinase B-raf; test: Inhibition of BRAF in human Jurkat T cells assessed as reduction in ERK phosphorylation; format: cell-based
[27] = system: A-375; test: Cytotoxicity against human A375 cells harboring BRAF V600E mutant after 96 hrs by CellTiter-Glo assay; format: functional, cell-based; settings: A-375, 96 h

T1 sequence (P15056 2-766 V600E limits assumed): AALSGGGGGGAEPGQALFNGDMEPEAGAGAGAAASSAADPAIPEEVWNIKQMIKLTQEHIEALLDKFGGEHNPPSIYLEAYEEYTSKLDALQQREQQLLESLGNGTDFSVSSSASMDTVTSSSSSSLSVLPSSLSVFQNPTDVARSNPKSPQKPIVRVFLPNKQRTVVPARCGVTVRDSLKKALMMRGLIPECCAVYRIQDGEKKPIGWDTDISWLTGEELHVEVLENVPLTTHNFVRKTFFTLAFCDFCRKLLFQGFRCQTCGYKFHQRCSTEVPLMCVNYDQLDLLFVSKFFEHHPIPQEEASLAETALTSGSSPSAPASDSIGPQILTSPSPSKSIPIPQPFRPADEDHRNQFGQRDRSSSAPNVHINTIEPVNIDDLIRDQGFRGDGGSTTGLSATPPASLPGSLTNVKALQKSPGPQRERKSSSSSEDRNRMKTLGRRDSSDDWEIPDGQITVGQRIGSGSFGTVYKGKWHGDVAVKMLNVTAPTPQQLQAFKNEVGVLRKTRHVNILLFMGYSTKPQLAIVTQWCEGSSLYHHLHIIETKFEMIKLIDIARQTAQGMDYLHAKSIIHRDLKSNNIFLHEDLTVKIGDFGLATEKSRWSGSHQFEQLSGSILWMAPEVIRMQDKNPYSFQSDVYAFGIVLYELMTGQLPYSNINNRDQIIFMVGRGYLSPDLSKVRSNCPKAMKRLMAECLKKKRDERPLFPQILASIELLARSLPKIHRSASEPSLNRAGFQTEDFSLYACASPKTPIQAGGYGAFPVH
T4 sequence (P15056 whole entry): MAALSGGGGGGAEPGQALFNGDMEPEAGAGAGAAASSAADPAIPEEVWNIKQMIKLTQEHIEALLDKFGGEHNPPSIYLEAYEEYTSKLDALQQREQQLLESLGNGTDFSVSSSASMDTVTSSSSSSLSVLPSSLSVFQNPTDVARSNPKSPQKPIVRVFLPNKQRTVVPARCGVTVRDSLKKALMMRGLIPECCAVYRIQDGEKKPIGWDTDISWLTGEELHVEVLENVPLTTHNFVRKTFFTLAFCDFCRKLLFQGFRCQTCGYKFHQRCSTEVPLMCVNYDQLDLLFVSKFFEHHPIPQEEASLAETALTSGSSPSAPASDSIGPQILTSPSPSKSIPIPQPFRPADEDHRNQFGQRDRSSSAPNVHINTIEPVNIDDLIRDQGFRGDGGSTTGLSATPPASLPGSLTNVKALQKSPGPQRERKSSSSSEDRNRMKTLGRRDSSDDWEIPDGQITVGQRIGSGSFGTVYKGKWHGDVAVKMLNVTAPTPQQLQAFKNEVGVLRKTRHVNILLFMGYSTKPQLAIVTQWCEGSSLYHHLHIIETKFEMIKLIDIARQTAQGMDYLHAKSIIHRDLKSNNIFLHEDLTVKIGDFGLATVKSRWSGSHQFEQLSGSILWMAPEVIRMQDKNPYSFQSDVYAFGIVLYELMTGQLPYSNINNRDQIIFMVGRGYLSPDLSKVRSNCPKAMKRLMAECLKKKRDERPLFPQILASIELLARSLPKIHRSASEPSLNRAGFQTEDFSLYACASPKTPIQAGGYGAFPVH
T2 sequence (P04049 whole entry): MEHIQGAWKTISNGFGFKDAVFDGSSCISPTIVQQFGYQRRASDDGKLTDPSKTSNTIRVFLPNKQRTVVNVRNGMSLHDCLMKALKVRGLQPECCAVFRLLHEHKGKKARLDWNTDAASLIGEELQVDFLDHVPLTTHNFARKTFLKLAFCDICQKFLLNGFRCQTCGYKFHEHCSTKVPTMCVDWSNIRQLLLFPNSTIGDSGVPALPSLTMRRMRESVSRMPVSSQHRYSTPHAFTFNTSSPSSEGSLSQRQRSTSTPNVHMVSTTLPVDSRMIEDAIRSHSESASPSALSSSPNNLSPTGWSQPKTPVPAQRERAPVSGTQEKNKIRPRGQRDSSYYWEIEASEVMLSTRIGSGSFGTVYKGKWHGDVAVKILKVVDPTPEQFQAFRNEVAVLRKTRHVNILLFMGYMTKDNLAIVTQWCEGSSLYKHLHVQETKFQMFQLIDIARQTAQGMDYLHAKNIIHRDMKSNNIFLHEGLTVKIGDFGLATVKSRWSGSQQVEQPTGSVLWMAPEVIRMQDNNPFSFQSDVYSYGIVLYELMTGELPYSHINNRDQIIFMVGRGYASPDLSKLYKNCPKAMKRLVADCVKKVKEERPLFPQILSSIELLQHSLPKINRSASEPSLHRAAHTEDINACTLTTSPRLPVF

IC50 [1]: 3900 nM
Structure (SMILES): CNC(=O)c1cc(Oc2ccc(NC(=O)Nc3ccc(Cl)c(C(F)(F)F)c3)cc2)ccn1 [SORAFENIB]

Structure (SMILES): CN(C)CCOc1ccc(-c2nc(-c3ccncc3)c(-c3ccc4c(c3)CC/C4=N\O)[nH]2)cc1 [SB590885]
IC50 [2]: 370 nM

Structure (SMILES): CCCS(=O)(=O)Nc1ccc(F)c(C(=O)c2c[nH]c3ncc(Cl)cc23)c1F [PLX-4720]
IC50 [3]: 500 nM

Structure (SMILES): CCN(C)S(=O)(=O)Nc1ccc(F)c(C(=O)c2c[nH]c3ncc(-c4cnc(C5CC5)nc4)cc23)c1F
IC50 [4]: 170 nM
IC50 [5]: 16 nM
IC50 [6]: 4.2 nM

IC50 [7]: 7 nM
IC50 [8]: 5.6 nM
IC50 [9]: 23 nM
IC50 [10]: 64 nM
IC50 [11]: 32 nM
Structure (SMILES): O=C1CCc2c(Oc3ccc4c(c3)[C@H]3[C@@H](O4)[C@@H]3c3nc4ccc(C(F)(F)F)cc4[nH]3)ccnc2N1
IC50 [3]: 200 nM

IC50 [12]: 5 nM
IC50 [13]: 15 nM
Structure (SMILES): CSc1cc(Oc2ccnc3[nH]c(=O)cnc23)ccc1NC(=O)Nc1cc(C(C)(C)C)nn1-c1ccccc1
IC50 [3]: 10 nM

Structure (SMILES): O=C(c1c(F)ccc(NS(=O)(=O)N2CC[C@H](F)C2)c1F)c1c[nH]c2ncc(-c3cnc(C4CC4)nc3)cc12
IC50 [14]: 800 nM
IC50 [5]: 3.5 nM
IC50 [6]: 3.8 nM

Structure (SMILES): CC(C)(C)c1nc(-c2cccc(NS(=O)(=O)c3c(F)cccc3F)c2F)c(-c2ccnc(N)n2)s1 [DABRAFENIB]
IC50 [15]: 43 nM

Tmax [17]: 2 h
Structure (SMILES): C[C@H](NC(=O)c1ncnc(N)c1Cl)c1ncc(C(=O)Nc2cc(C(F)(F)F)c(Cl)cn2)s1
IC50 [16]: 248 nM

Structure (SMILES): CC(C)(N)c1cc(C(=O)NC2CCc3ccc(Oc4ccnc5c4CCC(=O)N5)cc3C2)cc(C(F)(F)F)c1 (stereo not given)
IC50 [3]: 200 nM

Structure (SMILES): CCCS(=O)(=O)Nc1ccc(F)c(-n2cc(-c3cncnc3)c3nc(N(C)C4CCN(CC)CC4)ccc32)c1F [XP-102]
IC50 [18]: 0.4 nM
IC50 [19]: 0.9 nM
IC50 [20]: 0.5 nM
IC50 [21]: 0.8 nM
IC50 [22]: 0.6 nM

Structure (SMILES): CC(C)(C)c1cc(NC(=O)Nc2ccc(Oc3ccnc4[nH]c(=O)cnc34)cc2F)n(-c2ccccc2)n1
IC50 [12]: 5 nM
IC50 [13]: 40 nM
IC50 [23]: 15 nM

half-life [24]: 67 h
Structure (SMILES): CNc1ncc2cc(-c3cc(NC(=O)NCCC(C)(C)C)c(F)cc3C)c(C)nc2n1 [LY-3009120]

IC50 [13]: 6 nM
IC50 [26]: 2000 nM
Structure (SMILES): COC(=O)Nc1nc2cc(C3(O)c4ccccc4C(=O)N3c3cc(Cl)ccc3C)ccc2[nH]1 (stereo not given) [XL-281]
IC50 [25]: 200 nM

Structure (SMILES): OCCn1cc(-c2ccc3c(c2)CC/C3=N\O)c(-c2ccncc2)n1
EC50 [27]: > 500 nM
